Laboratory results: publication PMC6718736, “Validation of in vitro methods for human cytochrome P450 enzyme induction: Outcome of a multi-laboratory study” (Toxicology in Vitro, 2019)
“Also recorded” adds a separate entry of the source. Where two headings read alike, the source gives them in different places.

Legend:
CYP1A2 [1] = assay: CYP1A2 enzyme induction assay in cryopreserved primary human hepatocytes (PHH); type: in vitro ADME; settings: for Prediction in vivo inducer: Cmax/F2 >0.5 criterion; for Assigned classification CYP1A2: PHH;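 as to Assigned classification CYP1A2: code 1 means positive inducer and 0 means non-inducer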
CYP = CYP isoforms induced; ref Abadie et al. (2009), Richert et al. (2010), Preissner et al. (2010), Hoffmann et al. (2014); cited from earlier work
CYP2B6 [2] = assay: CYP2B6 enzyme induction assay in cryopreserved HepaRG cells (bupropion probe, LC/MS); type: in vitro ADME, human; settings: for Prediction in vivo inducer: Cmax/F2 >0.5 criterion; for Assigned classification CYP2B6: HepaRG; as to Assigned classification CYP2B6: key: 1=Positive=inducer; 0=Negative=non-inducer
CYP2B6 [3] = settings: cited from earlier work
CYP1A2 [4] = settings: cited from earlier work
CYP3A4 [5] = assay: CYP3A4 enzyme induction assay in cryopreserved HepaRG cells (midazolam probe, LC/MS); type: in vitro ADME, human; settings: for Assigned classification CYP3A4: HepaRG; as to Assigned classification CYP3A4: key: 1=Positive=inducer; 0=Negative=non-inducer
CYP2B6 [6] = assay: CYP2B6 enzyme induction assay in cryopreserved primary human hepatocytes (PHH); type: in vitro ADME; settings: for Assigned classification CYP2B6: PHH;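 as to Assigned classification CYP2B6: code 1 means positive inducer and 0 means non-inducer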
CYP3A4 [7] = assay: CYP3A4 enzyme induction assay in cryopreserved primary human hepatocytes (PHH); settings: for Assigned classification CYP3A4: PHH
[8] = cited from earlier work
CYP1A2 [9] = assay: CYP1A2 enzyme induction assay in cryopreserved HepaRG cells (phenacetin probe, LC/MS); type: in vitro ADME, human; settings: for Assigned classification CYP1A2: HepaRG; as to Assigned classification CYP1A2: key: 1=Positive=inducer; 0=Negative=non-inducer
CYP3A4 [10] = settings: cited from earlier work
[11] = human in vivo, CYP named without remark = induced, ref references in the cell, Washington University database, Hoffmann et al. (2014), Pelkonen et al. (2008), Hukkanen et al. (2012)

Prediction in vivo inducer (CYP1A2 [1]; CYP1A2, PHH): No | Induction in vitro (CYP1A2 [1]; CYP1A2, PHH, positive in one donor in each of the three laboratories): No | Assigned classification CYP1A2 (CYP1A2 [1]; Lab 1, batch 0 6 A): 0 | Assigned classification CYP1A2 (CYP1A2 [1]; Lab 1, batch 4 0 8): 1 | Assigned classification CYP1A2 (CYP1A2 [1]; Lab 1, batch 8 0 8): 0 | Assigned classification CYP1A2 (CYP1A2 [1]; Lab 2, batch 0 6 A): 0 | Assigned classification CYP1A2 (CYP1A2 [1]; Lab 2, batch 4 0 8): 0 | Assigned classification CYP1A2 (CYP1A2 [1]; Lab 2, batch 8 0 8): 0 | Assigned classification CYP1A2 (CYP1A2 [1]; Lab 3, batch 0 6 A): 1 | Assigned classification CYP1A2 (CYP1A2 [1]; Lab 3, batch 4 0 8): 0 | Assigned classification CYP1A2 (CYP1A2 [1]; Lab 3, batch 8 0 8): 0 | Prediction in vivo inducer (CYP2B6 [2]; CYP2B6, HepaRG cells): Yes | Prediction in vivo inducer (CYP2B6 [2]; CYP2B6, HepaRG cells, listed as carbamazepine): correctly classified | F2 (CYP2B6 [2]; CYP2B6, HepaRG cells, in vitro concentration producing 2-fold induction): 18.8 µM | Induction in vitro (CYP2B6 [2]; CYP2B6, HepaRG cells, positive in one batch in each of the three laboratories): Yes | Assigned classification CYP2B6 (CYP2B6 [2]; Lab 1, batch 20): 1 | Assigned classification CYP2B6 (CYP2B6 [2]; Lab 1, batch 35): 1 | Assigned classification CYP2B6 (CYP2B6 [2]; Lab 1, batch 36): 1 | Assigned classification CYP2B6 (CYP2B6 [2]; Lab 2, batch 20): 1 | Assigned classification CYP2B6 (CYP2B6 [2]; Lab 2, batch 35): 1 | Assigned classification CYP2B6 (CYP2B6 [2]; Lab 2, batch 36): 1 | Assigned classification CYP2B6 (CYP2B6 [2]; Lab 3, batch 20): 1 | Assigned classification CYP2B6 (CYP2B6 [2]; Lab 3, batch 35): 1 | Assigned classification CYP2B6 (CYP2B6 [2]; Lab 3, batch 36): 1 | F2 (CYP3A4 [5]; CYP3A4, HepaRG cells): 18.8 µM | Induction in vitro (CYP3A4 [5]; CYP3A4, HepaRG cells): Yes | Prediction in vivo inducer (CYP3A4 [5]; CYP3A4, HepaRG cells): Yes | Assigned classification CYP3A4 (CYP3A4 [5]; Lab 1, batch 20): 1 | Assigned classification CYP3A4 (CYP3A4 [5]; Lab 1, batch 35): 1 | Assigned classification CYP3A4 (CYP3A4 [5]; Lab 1, batch 36): 0 | Assigned classification CYP3A4 (CYP3A4 [5]; Lab 2, batch 20): 1 | Assigned classification CYP3A4 (CYP3A4 [5]; Lab 2, batch 35): 1 | Assigned classification CYP3A4 (CYP3A4 [5]; Lab 2, batch 36): 1 | Assigned classification CYP3A4 (CYP3A4 [5]; Lab 3, batch 20): 1 | Assigned classification CYP3A4 (CYP3A4 [5]; Lab 3, batch 35): 1 | Assigned classification CYP3A4 (CYP3A4 [5]; Lab 3, batch 36): 1 | F2 (CYP2B6 [6]; CYP2B6, PHH): 2.09 to 6.27 µM | Induction in vitro (CYP2B6 [6]; CYP2B6, PHH): Yes | Prediction in vivo inducer (CYP2B6 [6]; CYP2B6, PHH): Yes | Prediction in vivo inducer (CYP2B6 [6]; CYP2B6, PHH, Cmax/F2 >0.5 criterion): positive | Assigned classification CYP2B6 (CYP2B6 [6]; Lab 1, batch 0 6 A): 1 | Assigned classification CYP2B6 (CYP2B6 [6]; Lab 1, batch 4 0 8): 1 | Assigned classification CYP2B6 (CYP2B6 [6]; Lab 1, batch 8 0 8): 0 | Assigned classification CYP2B6 (CYP2B6 [6]; Lab 2, batch 0 6 A): 1 | Assigned classification CYP2B6 (CYP2B6 [6]; Lab 2, batch 4 0 8): 1 | Assigned classification CYP2B6 (CYP2B6 [6]; Lab 2, batch 8 0 8): 0 | Assigned classification CYP2B6 (CYP2B6 [6]; Lab 3, batch 0 6 A): 1 | Assigned classification CYP2B6 (CYP2B6 [6]; Lab 3, batch 4 0 8): 1 | Assigned classification CYP2B6 (CYP2B6 [6]; Lab 3, batch 8 0 8): 0 | Induction in vitro (CYP3A4 [7]; CYP3A4, PHH): Yes | Prediction in vivo inducer (CYP3A4 [7]; CYP3A4, PHH): Yes | Assigned classification CYP3A4 (CYP3A4 [7]; Lab 1, batch 0 6 A): 1 | Assigned classification CYP3A4 (CYP3A4 [7]; Lab 1, batch 4 0 8): 1 | Assigned classification CYP3A4 (CYP3A4 [7]; Lab 1, batch 8 0 8): 1 | Assigned classification CYP3A4 (CYP3A4 [7]; Lab 2, batch 0 6 A): 1 | Assigned classification CYP3A4 (CYP3A4 [7]; Lab 2, batch 4 0 8): 1 | Assigned classification CYP3A4 (CYP3A4 [7]; Lab 2, batch 8 0 8): 1 | Assigned classification CYP3A4 (CYP3A4 [7]; Lab 3, batch 0 6 A): 1 | Assigned classification CYP3A4 (CYP3A4 [7]; Lab 3, batch 4 0 8): 1 | Assigned classification CYP3A4 (CYP3A4 [7]; Lab 3, batch 8 0 8): 1 | Prediction in vivo inducer (CYP1A2 [9]; CYP1A2, HepaRG cells, Cmax/F2 >0.5 criterion): Yes | F2 (CYP1A2 [9]; CYP1A2, HepaRG cells, in vitro concentration producing 2-fold induction): 56.4 µM | Induction in vitro (CYP1A2 [9]; CYP1A2, HepaRG cells, positive in one batch in each of the three laboratories): Yes | Assigned classification CYP1A2 (CYP1A2 [9]; Lab 1, batch 20): 1 | Assigned classification CYP1A2 (CYP1A2 [9]; Lab 1, batch 35): 1 | Assigned classification CYP1A2 (CYP1A2 [9]; Lab 1, batch 36): 1 | Assigned classification CYP1A2 (CYP1A2 [9]; Lab 2, batch 20): 1 | Assigned classification CYP1A2 (CYP1A2 [9]; Lab 2, batch 35): 1 | Assigned classification CYP1A2 (CYP1A2 [9]; Lab 2, batch 36): 1 | Assigned classification CYP1A2 (CYP1A2 [9]; Lab 3, batch 20): 0 | Assigned classification CYP1A2 (CYP1A2 [9]; Lab 3, batch 35): 1 | Assigned classification CYP1A2 (CYP1A2 [9]; Lab 3, batch 36): 1
Structure (SMILES): NC(=O)N1c2ccccc2C=Cc2ccccc21 [Carbamazepine]
Prediction in vivo inducer (CYP1A2 [1]; CYP1A2, PHH, listed as carbamazepine): non-inducer; also recorded: missed the in vivo prediction | CYP induction in vitro (human hepatocytes) (CYP): CYP1A2, CYP2B6, CYP3A4 | Induction in vivo (CYP2B6 [3]; CYP2B6, human in vivo reference classification): Yes | Induction in vivo (CYP2B6 [3]; CYP2B6, human, ref Table 1): Yes | CYP induction in vivo literature reference: CYP2B6 (CYP2B6 [3]; [11]): CYP2B6 | Induction in vivo (CYP1A2 [4]; CYP1A2, human, ref Table 1): Yes | CYP induction in vivo literature reference: CYP1A2 (CYP1A2 [4]; [11]): CYP 1A2 | Cmax ([8]; human in vivo plasma concentration, normal dose): 39 µM | Cmax ([8]; human in vivo, normal dose (Table 10)): 39 µM | Induction in vivo (CYP3A4 [10]; CYP3A4, human in vivo reference classification (Table 11)): Yes | CYP induction in vivo literature reference: CYP3A4 (CYP3A4 [10]; [11]): CYP 3A4
